# Results published in PubChem BioAssay AID504759 (National Center for Advancing Translational Sciences (NCATS), 2011).
# System: Caco-2 monolayer bidirectional permeability, LC-MS/MS
# Test: Inhibitors of Cruzain: Efflux Ratio Profiling
# Details: stronger effect = lower value
# Text: Chagas Disease is a neglected tropical disease that affects over 16 million people in Latin America. The cysteine protease cruzain is essential for the survival Trypanosoma cruzi, the parasitic agent responsible for Chagas disease. Potential intervention for T. cruzi includes the inhibition of cruzain. This bioassay will summarize the ongoing development of small molecule cruzain inhbitiors. Currently, a screen of ~200k compounds and through extensive follow-up work a probe was identified. To further characterize the probe, it was tested in in vitro ADME assays. This bioassays provides profiling data on Caco-2 cell permeability of leads compounds developed for the HPGD project. This in vitro model is often predictive of in vivo efflux of the compound by measuring the ratio of transport in and out the plasma membrane of the Caco2-cell line. NIH Chemical Genomics Center [NCGC] NIH Molecular Libraries Probe Production Centers Network [MLPCN] MLSCN Grant: DA024891-01 PI Name: Dr. Brian Shoichet; University of California, San Francisco
# 1. Buffer Preparation: Prepare 1M HEPES: add 23.83g HEPES to 100ml of 0.85% NaCl Prepare HBSS+ buffer: add 12.8ml of 1M HEPES in 0.85% NaCl to 500ml HBSS buffer. 2. […] The T0, LY and T90, LY plates are read by FlexStation 3 at excitation of 485 nm and emission of 535 nm to determine LY permeability. […]
smiles,measurement,value
Cc1ccc(OCCn2c(CCNC(=O)C3CCCCC3)nc3ccccc32)cc1,efflux ratio,1.1
